Earlier results, collected in US8545863B2, “Insecticides for agricultural and horticultural crops” (Globachem, priority 2009, dated 2013).

Test system: apple scab (V. inequalis)

Row | Compound | decreasing fruit and leaf scab (apple scab) | concentration preventing germination of spores and killing the spore sacks (asci) (apple scab (V. inequalis)) [g/L]
1 | O=C([O-])O.[K+] [Potassium bicarbonate, potassium bicarbonate] | effective | 
2 | [Ca+2].[OH-].[OH-] [calcium hydroxide] |  | 4.3
